According to US8889874B2, “Imidazolone-chalcone derivatives as potential anticancer agent and process for the preparation thereof” (Council of Scientific and Industrial Research, priority 2010, dated 2014):
Like-named read-outs stand apart in the source and are kept apart here.

Tests used:
Experiment in all cases: NCI anticancer screen, SRB assay, 48 h
Type in all cases: cell-based, human
[1] = system: A549/ATCC (non-small cell lung); settings: Homo sapiens
How it was run: (§1)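 Sulforhodamine B protein assay read cell growth after 48 h of continuous compound exposure. Dose-response curves per cell line used at least five 10-fold-diluted concentrations, within a panel of fifty-three human lines from nine tumour types.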

ACHN (renal) = settings: Homo sapiens
How it was run: as §1

CAKI-1 (renal) = settings: Homo sapiens
How it was run: as §1

COLO 205 (colon) = settings: Homo sapiens, COLO 205
How it was run: as §1

[2] = system: EKVX (non-small cell lung); settings: Homo sapiens
How it was run: as §1

HCT-116 (colon) = settings: Homo sapiens
How it was run: as §1

[3] = system: HOP-62 (non-small cell lung); settings: Homo sapiens
How it was run: as §1

HT29 (colon) = settings: Homo sapiens
How it was run: as §1

KM12 (colon) = settings: Homo sapiens
How it was run: as §1

M14 (melanoma) = settings: Homo sapiens
How it was run: as §1

MALME-3M (melanoma) = settings: Homo sapiens
How it was run: as §1

[4] = system: NCI-H226 (non-small cell lung); settings: Homo sapiens
How it was run: as §1

[5] = system: NCI-H23 (non-small cell lung); settings: Homo sapiens
How it was run: as §1

[6] = system: NCI-H322M (non-small cell lung); settings: Homo sapiens
How it was run: as §1

[7] = system: NCI-H522 (non-small cell lung); settings: Homo sapiens
How it was run: as §1

NCI/ADR-RES (ovarian) = settings: Homo sapiens, NCI/ADR-RES
How it was run: as §1

OVCAR-3 (ovarian) = settings: Homo sapiens
How it was run: as §1

OVCAR-4 (ovarian) = settings: Homo sapiens
How it was run: as §1

OVCAR-8 (ovarian) = settings: Homo sapiens
How it was run: as §1

[8] = system: RPMI-8226 (leukemia cell line); settings: Homo sapiens
How it was run: as §1

RXF 393 (renal) = settings: Homo sapiens
How it was run: as §1

SK-MEL-2 (melanoma) = settings: Homo sapiens
How it was run: as §1

SK-MEL-28 (melanoma) = settings: Homo sapiens
How it was run: as §1

SK-OV-3 (ovarian) = settings: Homo sapiens
How it was run: as §1

SNB-19 (CNS) = settings: Homo sapiens
How it was run: as §1

SNB-75 (CNS) = settings: Homo sapiens
How it was run: as §1

TD-47D (breast) = settings: Homo sapiens
How it was run: as §1

UACC-257 (melanoma) = settings: Homo sapiens
How it was run: as §1

UACC-62 (melanoma) = settings: Homo sapiens
How it was run: as §1

UO-31 (renal) = settings: Homo sapiens
How it was run: as §1

[9] = 48 h exposure, SRB, read-out: GI50
[10] = read-out: pGI50 (-log of molar concentration causing 50% inhibition of net cell growth) (converted)
[11] = COLO205, read-out: pGI50 (-log of molar concentration causing 50% inhibition of net cell growth) (converted)
[12] = HT-29, 48 h exposure, SRB, read-out: GI50
[13] = HT-29, read-out: pGI50 (-log of molar concentration causing 50% inhibition of net cell growth) (converted)
[14] = Malme-3M, read-out: pGI50 (-log of molar concentration causing 50% inhibition of net cell growth) (converted)
[15] = MALME-3M, 48 h exposure, SRB, read-out: GI50
[16] = NCl/ADR-RES, 48 h exposure, SRB, read-out: GI50
[17] = RXF 393, 48 h exposure, SRB, read-out: GI50
[18] = RXF-393, read-out: pGI50 (-log of molar concentration causing 50% inhibition of net cell growth) (converted)

O=C(/C=C/c1cccc(O)c1)c1cccc(-n2cc(-c3ccc4ccccc4c3)[nH]c2=O)c1 [12b, 1-3-[(E)-3-(3-hydroxyphenyl)-2-propenoyl]phenyl-4-(2-naphthyl)-2,3-dihydro-1H-2-imidazolone]
GI50 [1, 9]: 3380 nM | GI50 [1, 10]: 3390 nM | GI50 (ACHN (renal); [9]): 1570 nM | GI50 (ACHN (renal); [10]): 1580 nM | GI50 (CAKI-1 (renal); [9]): 1450 nM | GI50 (CAKI-1 (renal); [10]): 1450 nM | GI50 (COLO 205 (colon); [11]): 2090 nM | GI50 (COLO 205 (colon); [9]): 2090 nM | GI50 [2, 9]: 2640 nM | GI50 [2, 10]: 2630 nM | GI50 (HCT-116 (colon); [9]): 400 nM | GI50 (HCT-116 (colon); [10]): 398 nM | GI50 [3, 9]: 2260 nM | GI50 [3, 10]: 2240 nM | GI50 (HT29 (colon); [12]): 1540 nM | GI50 (HT29 (colon); [13]): 1550 nM | GI50 (KM12 (colon); [9]): 1210 nM | GI50 (KM12 (colon); [10]): 1200 nM | GI50 (M14 (melanoma); [9]): 1490 nM | GI50 (M14 (melanoma); [10]): 1480 nM | GI50 (MALME-3M (melanoma); [14]): 2090 nM | GI50 (MALME-3M (melanoma); [15]): 2080 nM | GI50 [4, 9]: 2430 nM | GI50 [4, 10]: 2450 nM | GI50 [5, 9]: 1520 nM | GI50 [5, 10]: 1510 nM | GI50 [6, 9]: 1660 nM | GI50 [6, 10]: 1660 nM | GI50 [7, 9]: 1290 nM | GI50 [7, 10]: 1290 nM | GI50 (NCI/ADR-RES (ovarian); [16]): 1550 nM | GI50 (NCI/ADR-RES (ovarian); [10]): 1550 nM | GI50 (OVCAR-3 (ovarian); [9]): 1330 nM | GI50 (OVCAR-3 (ovarian); [10]): 1320 nM | GI50 (OVCAR-4 (ovarian); [9]): 1680 nM | GI50 (OVCAR-4 (ovarian); [10]): 1700 nM | GI50 (OVCAR-8 (ovarian); [9]): 2330 nM | GI50 (OVCAR-8 (ovarian); [10]): 2340 nM | GI50 [8, 9]: 1670 nM | GI50 [8, 10]: 1660 nM | GI50 (RXF 393 (renal); [17]): 1410 nM | GI50 (RXF 393 (renal); [18]): 1410 nM | GI50 (SK-MEL-2 (melanoma); [9]): 2310 nM | GI50 (SK-MEL-2 (melanoma); [10]): 2290 nM | GI50 (SK-MEL-28 (melanoma); [9]): 3790 nM | GI50 (SK-MEL-28 (melanoma); [10]): 3800 nM | GI50 (SK-OV-3 (ovarian); [9]): 2150 nM | GI50 (SK-OV-3 (ovarian); [10]): 2140 nM | GI50 (SNB-19 (CNS); [9]): 1320 nM | GI50 (SNB-19 (CNS); [10]): 1320 nM | GI50 (SNB-75 (CNS); [9]): 1880 nM | GI50 (SNB-75 (CNS); [10]): 1860 nM | GI50 (TD-47D (breast); [9]): 1110 nM | GI50 (TD-47D (breast); [10]): 1120 nM | GI50 (UACC-257 (melanoma); [9]): 4130 nM | GI50 (UACC-257 (melanoma); [10]): 4170 nM | GI50 (UACC-62 (melanoma); [9]): 1800 nM | GI50 (UACC-62 (melanoma); [10]): 1820 nM | GI50 (UO-31 (renal); [9]): 1260 nM | GI50 (UO-31 (renal); [10]): 1260 nM

COc1cc(/C=C/C(=O)c2cccc(-n3cc(-c4ccccc4)[nH]c3=O)c2)cc(OC)c1OC [5a, 4-phenyl-1-3-[(E)-3-(3,4,5-trimethoxyphenyl)-2-propenoyl]phenyl-2,3-dihydro-1H-2-imidazolone]
GI50 [1, 9]: 4030 nM | GI50 [1, 10]: 4070 nM | GI50 (ACHN (renal); [9]): 1600 nM | GI50 (ACHN (renal); [10]): 1580 nM | GI50 (CAKI-1 (renal); [9]): 1750 nM | GI50 (CAKI-1 (renal); [10]): 1740 nM | GI50 (COLO 205 (colon); [11]): 1510 nM | GI50 (COLO 205 (colon); [9]): 1510 nM | GI50 [2, 9]: 2300 nM | GI50 [2, 10]: 2290 nM | GI50 (HCT-116 (colon); [9]): 330 nM | GI50 (HCT-116 (colon); [10]): 331 nM | GI50 [3, 9]: 4120 nM | GI50 [3, 10]: 4070 nM | GI50 (HT29 (colon); [12]): 660 nM | GI50 (HT29 (colon); [13]): 661 nM | GI50 (KM12 (colon); [9]): 1370 nM | GI50 (KM12 (colon); [10]): 1380 nM | GI50 (M14 (melanoma); [9]): 1350 nM | GI50 (M14 (melanoma); [10]): 1350 nM | GI50 (MALME-3M (melanoma); [14]): 1320 nM | GI50 (MALME-3M (melanoma); [15]): 1310 nM | GI50 [4, 9]: 14600 nM | GI50 [4, 10]: 14500 nM | GI50 [5, 9]: 1430 nM | GI50 [5, 10]: 1450 nM | GI50 [6, 9]: 2020 nM | GI50 [6, 10]: 2040 nM | GI50 [7, 9]: 950 nM | GI50 [7, 10]: 955 nM | GI50 (NCI/ADR-RES (ovarian); [16]): 1100 nM | GI50 (NCI/ADR-RES (ovarian); [10]): 1100 nM | GI50 (OVCAR-3 (ovarian); [9]): 1230 nM | GI50 (OVCAR-3 (ovarian); [10]): 1230 nM | GI50 (OVCAR-4 (ovarian); [9]): 1880 nM | GI50 (OVCAR-4 (ovarian); [10]): 1860 nM | GI50 (OVCAR-8 (ovarian); [9]): 1620 nM | GI50 (OVCAR-8 (ovarian); [10]): 1620 nM | GI50 [8, 9]: 620 nM | GI50 [8, 10]: 617 nM | GI50 (RXF 393 (renal); [17]): 1710 nM | GI50 (RXF 393 (renal); [18]): 1700 nM | GI50 (SK-MEL-2 (melanoma); [9]): 2060 nM | GI50 (SK-MEL-2 (melanoma); [10]): 2040 nM | GI50 (SK-MEL-28 (melanoma); [9]): 1740 nM | GI50 (SK-MEL-28 (melanoma); [10]): 1740 nM | GI50 (SK-OV-3 (ovarian); [9]): 3270 nM | GI50 (SK-OV-3 (ovarian); [10]): 3240 nM | GI50 (SNB-19 (CNS); [9]): 2350 nM | GI50 (SNB-19 (CNS); [10]): 2340 nM | GI50 (SNB-75 (CNS); [9]): 4470 nM | GI50 (SNB-75 (CNS); [10]): 4470 nM | GI50 (TD-47D (breast); [9]): 2190 nM | GI50 (TD-47D (breast); [10]): 2190 nM | GI50 (UACC-257 (melanoma); [9]): 1520 nM | GI50 (UACC-257 (melanoma); [10]): 1510 nM | GI50 (UACC-62 (melanoma); [9]): 1520 nM | GI50 (UACC-62 (melanoma); [10]): 1510 nM | GI50 (UO-31 (renal); [9]): 1510 nM | GI50 (UO-31 (renal); [10]): 1510 nM
